# According to patent publication US20220409614A1, “TREATING BEHAVIORAL AND PSYCHOLOGICAL SYMPTOMS IN DEMENTIA PATIENTS” (SUVEN LIFE SCIENCES LIMITED, priority 2019, published 2022):
# Where two headings read alike, the source gives them in different places.
# What was measured:
# [1] = cited from earlier work
# [2] = short-term treatment; cited from earlier work
# [3] = tested on: subjects with moderate AD; experiment: Phase 2 study in moderate AD, NPI-12 (Neuropsychiatric Inventory) assessment; type: in vivo, humans; conditions: for effect on NPI domains as measured by the NPI-12 scale: overall statement
# Text: The study consisted of a 2 to 4-week screening period, followed by a 26-week double-blind treatment period and a 4-week single-blind placebo washout period. […] Population: The study population included male or female subjects, 50 to 85 years of age, with moderate dementia due to probable AD (MMSE 12-20, both inclusive) based on the National Institute of Neurological and Communicative Diseases and Stroke/Alzheimer's Disease and Related Disorders Association ([…]) criteria, diagnosed at least 1 year prior to the study and receiving stable doses for at least 3 months of donepezil HCl (10 mg qd) and either memantine HCl (10 mg bid) or […]® (28 mg memantine HCl extended-release qd) or the combination therapy, NamzaricTM (28 mg memantine HCl extended-release/10 mg donepezil HCl) qd. […] Throughout the study, all subjects continued to receive donepezil HCl (10 mg qd) and memantine HCl (10 mg bid) or […]® (28 mg memantine HCl extended-release qd) or the combination therapy, NamzaricTM (28 mg memantine HCl extended-release/10 mg donepezil HCl) qd. […] During the washout period, all subjects were received placebo in addition to donepezil HCl and memantine HCl. The NPI is a 12-item structured interview with a caregiver designed to assess behavioral disturbances in patients with dementia. The NPI comprises 10 behavioral (hallucinations, delusions, agitation/aggression, dysphoria/depression, anxiety, irritability, disinhibition, euphoria/elation, apathy and aberrant motor behavior), and neurovegetative items (sleep and night-time behavior change, appetite and eating change). The behavioral domains are assessed in terms of frequency, severity and distress. Each item consists of a screening question and several sub-questions which are rated no (not present) or yes (present). Each item is then rated for frequency (a 4-point scale from 1 [occasionally] to 4 [very frequently]), severity (a 3-point scale from 1 [mild] to 3 [marked]), and caregiver distress (a 6-point scale from 0 [not at all] to 5 [very severely or extremely]). The total score 12 items of the frequency and severity ratings range from 0 to 144 and the total score 12 items of caregiver distress ranges from 0 to 60. The NPI was administered to the subject's caregiver and scored by a qualified, trained rater at baseline and Weeks 4, 13 and 26. Data was analyzed using a mixed effects model for repeated measures (MMRM). The model included fixed categorical factors for treatment, week, treatment-by-week interaction, and APO-E status (carrier-one allele, carrier-two alleles, and non-carrier), as well as a continuous covariate of baseline score, the baseline score-by-week interaction, age, and baseline MMSE score. In subgroup analysis, stratification was based on the baseline symptoms and/or symptom emergence.
# [4] = tested on: subjects with moderate AD; experiment: Phase 2 study in moderate AD, ADAS-Cog 11 assessment; type: in vivo, humans; conditions: for change from baseline in ADAScog-11 scores vs placebo: 50 mg
# Text: The study consisted of a 2 to 4-week screening period, followed by a 26-week double-blind treatment period and a 4-week single-blind placebo washout period. […] Population: The study population included male or female subjects, 50 to 85 years of age, with moderate dementia due to probable AD (MMSE 12-20, both inclusive) based on the National Institute of Neurological and Communicative Diseases and Stroke/Alzheimer's Disease and Related Disorders Association ([…]) criteria, diagnosed at least 1 year prior to the study and receiving stable doses for at least 3 months of donepezil HCl (10 mg qd) and either memantine HCl (10 mg bid) or […]® (28 mg memantine HCl extended-release qd) or the combination therapy, NamzaricTM (28 mg memantine HCl extended-release/10 mg donepezil HCl) qd. […] Throughout the study, all subjects continued to receive donepezil HCl (10 mg qd) and memantine HCl (10 mg bid) or […]® (28 mg memantine HCl extended-release qd) or the combination therapy, NamzaricTM (28 mg memantine HCl extended-release/10 mg donepezil HCl) qd. […] During the washout period, all subjects were received placebo in addition to donepezil HCl and memantine HCl. The Alzheimer's Disease Assessment Scale-Cognitive Subscale (ADAS-Cog) was developed to assess the level of cognitive dysfunction in AD. It is also used for assessing the efficacy of anti-dementia treatments. The ADAScog-11 is a brief measure of cognition, including word recall, commands, constructional praxis, naming objects and fingers, ideational praxis, orientation, word recognition task, remembering test instructions, spoken language ability, word-finding difficulty, and comprehension of spoken language. The test is scored by an administrator who adds up points for the errors in each task for a total score ranging from 0 to 70. The greater the dysfunction, the greater the score. A score of 70 represents the most severe impairment. Data was analyzed using a mixed effects model for repeated measures (MMRM). The model included fixed categorical factors for treatment, week, treatment-by-week interaction, and APO-E status (carrier-one allele, carrier-two alleles, and non-carrier), as well as a continuous covariate of baseline score, the baseline score-by-week interaction, age, and baseline MMSE score. In subgroup analysis, stratification was based on the baseline symptoms and/or symptom emergence.
# [5] = tested on: subjects with moderate AD; experiment: Phase 2 study in moderate AD, safety and tolerability assessment; design: species or system humans; conditions: in vivo
# Procedure: The study consisted of a 2 to 4-week screening period, followed by a 26-week double-blind treatment period and a 4-week single-blind placebo washout period.
# Throughout the study, all subjects continued to receive donepezil HCl (10 mg qd) and memantine HCl (10 mg bid) or Namenda XR® (28 mg memantine HCl extended-release qd) or the combination therapy, Namzaric™ (28 mg memantine HCl extended-release/10 mg donepezil HCl) qd.
# The safety assessed by monitoring adverse events, physical examinations, vital signs, clinical laboratory tests and electrocardiograms.
# patients with AD = conditions: citalopram treatment group; cited from earlier work
# [6] = baseline domain score ≥1, mITT, 50 mg, Week 4
# [7] = baseline domain score ≥1, mITT, 50 mg, Week 13
# [8] = baseline domain score ≥1, mITT, 50 mg, Week 26
# [9] = baseline domain score ≥1, mITT, 100 mg, Week 4
# [10] = baseline domain score ≥1, mITT, 100 mg, Week 13
# [11] = baseline domain score ≥1, mITT, 100 mg, Week 26
smiles,measurement,setting,value
CC(C)COc1ccc(CNC(=O)N(Cc2ccc(F)cc2)C2CCN(C)CC2)cc1 [Pimavanserin],effect on NPI-NH psychosis scale,[1]; week 6,statistically significant effect
same,effect on NPI-NH psychosis scale,[1]; week 12,no effect was evident
O=C1CCc2ccc(OCCCCN3CCN(c4cccc(Cl)c4Cl)CC3)cc2N1 [aripiprazole],symptomatic benefit in BPSD,[2],modest symptomatic benefit
Cc1nc2n(c(=O)c1CCN1CCC(c3noc4cc(F)ccc34)CC1)CCCC2 [risperidone],symptomatic benefit in BPSD,[2],modest symptomatic benefit
"COc1ccc2c(c1)c(CN1CCN(C)CC1)cn2S(=O)(=O)c1ccccc1Br [masupirdine, 1-[(2-bromophenyl)sulfonyl]-5-methoxy-3-[(4-methyl-1-piperazinyl)methyl]-1H-indole]",change from baseline in mean NPI-12 scores vs placebo,"[3]; 50 mg, Week 4",statistically significant treatment differences
same,change from baseline in mean agitation/aggression domain scores of NPI-12 vs placebo,"[3]; 50 mg, Week 26, no subgroup",statistically significant treatment difference
same,mean NPI-12 scores,"[3]; Week 13, all 3 treatment arms",remained similar to baseline
same,mean NPI-12 scores,"[3]; Week 26, masupirdine dose groups",remained similar to baseline
same,change from baseline in NPI-12 domain sleep and nighttime behavior vs placebo,"[3]; baseline domain score ≥1, 50 mg, Week 26",statistically significant treatment differences
same,change from baseline in NPI-12 domain sleep and nighttime behavior vs placebo,"[3]; baseline domain score ≥1, 100 mg, Week 13",statistically significant treatment difference
same,change from baseline in NPI-12 domain sleep and nighttime behavior vs placebo,"[3]; baseline domain score ≥1, 100 mg, Week 26",statistically significant treatment differences
same,change from baseline in NPI-12 domain aberrant motor behavior vs placebo,[3]; [6],statistically significant treatment differences
same,change from baseline in NPI-12 domain delusions and/or hallucinations vs placebo,[3]; [6],statistically significant treatment difference
same,change from baseline in NPI-12 domain sleep and nighttime behavior vs placebo,[3]; [6],statistically significant treatment difference
same,change from baseline in mean euphoria/elation scores vs placebo,[3]; [6],statistically significant treatment differences
same,"extended composite NPI-12 score domain (agitation/aggression, aberrant motor behavior and sleep and nighttime behavior disorders) vs placebo",[3]; [6],statistically significant treatment differences
same,change from baseline in NPI-12 domain aberrant motor behavior vs placebo,[3]; [7],statistically significant treatment difference
same,change from baseline in NPI-12 domain delusions and/or hallucinations vs placebo,[3]; [7],statistically significant treatment difference
same,change from baseline in mean agitation/aggression scores vs placebo,[3]; [7],statistically significant treatment difference
same,change from baseline in mean euphoria/elation scores vs placebo,[3]; [7],statistically significant treatment differences
same,change from baseline in mean agitation/aggression scores vs placebo,[3]; [8],statistically significant treatment difference
same,change from baseline in mean euphoria/elation scores vs placebo,[3]; [8],statistically significant treatment differences
same,"extended composite NPI-12 score domain (agitation/aggression, aberrant motor behavior and sleep and nighttime behavior disorders) vs placebo",[3]; [8],statistically significant treatment differences
same,change from baseline in NPI-12 domain delusions and/or hallucinations vs placebo,[3]; [9],statistically significant treatment difference
same,change from baseline in NPI-12 domain sleep and nighttime behavior vs placebo,[3]; [9],statistically significant treatment difference
same,change from baseline in mean agitation/aggression scores vs placebo,[3]; [10],statistically significant treatment difference
same,"extended composite NPI-12 score domain (agitation/aggression, aberrant motor behavior and sleep and nighttime behavior disorders) vs placebo",[3]; [10],statistically significant treatment differences
same,change from baseline in NPI-12 domain disinhibition vs placebo,[3]; [11],statistically significant treatment difference
same,"extended composite NPI-12 score domain (agitation/aggression, aberrant motor behavior and sleep and nighttime behavior disorders) vs placebo",[3]; [11],statistically significant treatment differences
same,change from baseline in mean agitation/aggression scores vs placebo,"[3]; baseline domain score ≥1, mITT, treatment and time added as covariates",statistically significant treatment differences
same,"extended composite NPI-12 score domain (agitation/aggression, aberrant motor behavior and sleep and nighttime behavior disorders) vs placebo","[3]; baseline domain score ≥1, treatment added as covariate, 50 mg",statistically significant treatment difference
same,change from baseline in NPI-12 domain sleep and nighttime behavior vs placebo,"[3]; baseline domain score ≥1, treatment added as covariate, 50 mg, Week 26",statistically significant treatment difference
same,change from baseline in NPI-12 domain delusions and/or hallucinations vs placebo,"[3]; baseline domain score ≥1, treatment added as covariate, 100 mg",statistically significant treatment difference
same,change from baseline in NPI-12 domain sleep and nighttime behavior vs placebo,"[3]; baseline domain score ≥1, treatment added as covariate, 100 mg, Week 26",statistically significant treatment difference
same,change from baseline in NPI-12 domain delusions and/or hallucinations vs placebo,"[3]; baseline domain score ≥1, treatment and time added as covariates",statistically significant treatment differences
same,change from baseline in mean agitation/aggression scores vs placebo,"[3]; baseline domain score ≥3, mITT, 50 mg, Week 13",statistically significant treatment difference
same,change from baseline in mean agitation/aggression scores vs placebo,"[3]; baseline domain score ≥3, mITT, 50 mg, Week 26",statistically significant treatment difference
same,change from baseline in mean agitation/aggression scores vs placebo,"[3]; baseline domain score ≥3, mITT, 100 mg, Week 13",statistically significant treatment difference
same,change from baseline in mean agitation/aggression scores vs placebo,"[3]; baseline domain score ≥3, treatment added as covariate, 50 mg, Week 26",statistically significant treatment difference
same,change from baseline in mean agitation/aggression scores vs placebo,"[3]; baseline domain score ≥3, treatment and time added as covariates",statistically significant treatment differences
same,effect on NPI domains as measured by the NPI-12 scale,[3],beneficial effects
same,effect on NPI domains as measured by the NPI-12 scale,[3]; listed as Masupirdine,significant treatment effect
same,behavioral and psychological symptoms as assessed by NPI-12 subscale scores,[3]; subgroup analyses,significant improvement
same,change from baseline in ADAScog-11 scores vs placebo,"[4]; baseline delusion and/or hallucination score ≥1, mITT, Week 26",statistically significant treatment difference
same,change from baseline in ADAScog-11 scores vs placebo,"[4]; baseline delusion and/or hallucination score ≥1, treatment added as covariate",statistically significant treatment difference
same,change from baseline in ADAScog-11 scores vs placebo,"[4]; baseline delusion and/or hallucination score ≥1, treatment and time added as covariates",statistically significant treatment differences
same,cognition as assessed by ADAS-Cog 11 scale,[4]; subjects with delusions and hallucinations (baseline symptoms),significantly improved cognition
same,change from baseline at Week 26 in ADAS-Cog 11 score (primary efficacy endpoint),"[4]; vs placebo, whole study population",did not show significant treatment advantage in cognition over placebo
same,safety and tolerability,[5],safe and well tolerated with no significant adverse events
CN(C)CCCC1(c2ccc(F)cc2)OCc2cc(C#N)ccc21 (stereo not drawn) [Citalopram],QT interval,patients with AD,QT interval prolongation
same,cognition,patients with AD,Worsening of cognition
